Measured values published in US20210214303A1, “SCORPION VENOM BENZOQUINONE DERIVATIVES AND USES THEREOF” (priority 2018, published 2021).
≈ marks a conversion by molar mass, not a printed value.

Assays:
M. tuberculosis = conditions: related compounds from the literature (Tran et al. 2004); cited from earlier work
Staphylococcus aureus = assay: broth microdilution assay (MIC); format: cell-based; conditions: S. aureus, read-out: minimum inhibitory concentration (MIC)
Description: FIG. 3D illustrates the determination of the minimal inhibitory concentrations (MICs) of the red and blue 1,4 benzoquinones against Staphylococcus aureus. The MICs determined by the broth microdilution assay are 4 μg/mL for the red 1,4 benzoquinone and 6 μg/mL for the blue 1,4 benzoquinone. Ampicillin was used as a positive control. Each result is reported as the mean±SD.
This difference was confirmed using a broth microdilution assay (FIG. 3D). The minimum inhibitory concentration (MIC) for S. aureus growth was 4 μg/mL for the red 1,4 benzoquinone and 6 μg/mL for the blue 1,4 benzoquinone (FIG. 3D, Table 1). Ampicillin (MIC=0.5 μg/mL) was used as a positive control (ESCMID Eo (2003) Clin. Microbiol. Infect. 9: ix-xv; Pieterse et al., (2010) Brazil. J. Microbiol. 41: 133-145). These compounds were bactericidal at their MICs, killing 90% of S. aureus in 6 h and 99.9% in 24 h (Table 2).

SMILES: O=C1C=CC(=O)C=C1 [1,4-benzoquinone]
- MIC (M. tuberculosis): 25 µg/mL (≈ 231 µM)

SMILES: O=C1C=CC(=O)c2ccccc21 [1,4-napthoquinone]
- MIC (M. tuberculosis): 100 µg/mL (≈ 632 µM)

SMILES: CC1(C)S[C@@H]2[C@H](NC(=O)[C@H](N)c3ccccc3)C(=O)N2[C@H]1C(=O)O [Ampicillin, reference compound]
- MIC (Staphylococcus aureus): 0.5 µg/mL (≈ 1.43 µM)
